Data from DBAASP.
Values after ≈ are worked out from the molar mass of the structure shown. One block for each compound: values may come before it.

Assays:
Test in all cases: ≥ marks a high value that may be exact or a test limit, other limits are often not marked, values filed in µg/mL are converted to µM
[1] = tested on: Pseudomonas aeruginosa ATCC 27853
[2] = tested on: Lactiplantibacillus plantarum 8014
[3] = tested on: Escherichia coli UB1005
[4] = tested on: Lacticaseibacillus rhamnosus 7469
[5] = tested on: Staphylococcus aureus ATCC 43300
[6] = tested on: Staphylococcus aureus ATCC 25923
[7] = tested on: Lacticaseibacillus rhamnosus 1.0936
[8] = tested on: Salmonella enterica subsp. enterica serovar Typhimurium ATCC 14028
[9] = tested on: Escherichia coli ATCC 25922
[10] = tested on: Salmonella enterica subsp. enterica serovar Pullorum C79-13
[11] = tested on: Salmonella enterica subsp. enterica serovar Typhimurium C77-31
[12] = tested on: Lacticaseibacillus rhamnosus 1.0385
[13] = tested on: Lacticaseibacillus rhamnosus 1.0911
[14] = tested on: Escherichia coli K99
[15] = tested on: Escherichia coli K88
[16] = tested on: Escherichia coli DC2
[17] = tested on: Aeromonas salmonicida 99-1
[18] = tested on: Candida albicans C627
[19] = tested on: Staphylococcus epidermidis C621
[20] = tested on: Escherichia coli CGSC 4908
[21] = tested on: Salmonella enterica serovar typhimurium MS7953s
[22] = tested on: Aeromonas salmonicida 97-4
[23] = tested on: Salmonella enterica subsp. enterica serovar Typhimurium ATCC 14028s
[24] = tested on: Pseudomonas aeruginosa Z61
[25] = tested on: Pseudomonas aeruginosa K799
[26] = tested on: Staphylococcus aureus C623
[27] = tested on: Staphylococcus epidermidis
[28] = tested on: Streptococcus uberis
[29] = tested on: Escherichia coli
[30] = tested on: Leuconostoc lactis
[31] = tested on: Listeria innocua
[32] = tested on: Micrococcus luteus
[33] = tested on: Pasteurella multocida
[34] = tested on: Bacillus cereus
[35] = tested on: Staphylococcus aureus
[36] = tested on: Micrococcus luteus NBRC 3333
[37] = tested on: Escherichia coli NBRC 3972
[38] = tested on: Aspergillus oryzae NBRC 100959
[39] = tested on: Staphylococcus epidermidis NBRC 12993
[40] = tested on: Candida viswanathii NBRC 10321
[41] = tested on: Achromobacter xylosoxidans
[42] = tested on: Pseudomonas aeruginosa M1426
[43] = tested on: Pseudomonas aeruginosa
[44] = tested on: Pseudomonas fluorescens
[45] = tested on: Pseudomonas aeruginosa M76
[46] = tested on: Pseudomonas aeruginosa PAO1
[47] = tested on: Pseudomonas aeruginosa M917
[48] = tested on: Pseudomonas aeruginosa M1251
[49] = tested on: Ralstonia pickettii
[50] = tested on: Candida albicans
[51] = tested on: Stenotrophomonas maltophilia
[52] = tested on: Salmonella enterica serovar Typhimurium
[53] = tested on: Pseudomonas aeruginosa R70
[54] = tested on: Zymomonas mobilis ATCC 10988

- MIC [1]: > 64 µM
- MIC [3]: 16 µM (≈ 15.3 µg/mL)
- MIC [4]: ≥ 64 µM
- MIC [5]: 8 µM (≈ 7.67 µg/mL)
- MIC [6]: 8 µM (≈ 7.67 µg/mL)
- MIC [7]: ≥ 64 µM
- MIC [8]: 32 µM (≈ 30.7 µg/mL)
- MIC [9]: 16 µM (≈ 15.3 µg/mL)
- MIC [10]: ≥ 64 µM
- MIC [11]: 16 µM (≈ 15.3 µg/mL)
- MIC [12]: ≥ 64 µM
- MIC [13]: ≥ 64 µM
- MIC [14]: 16 µM (≈ 15.3 µg/mL)
- MIC [15]: 16 µM (≈ 15.3 µg/mL)
Compound: CC(C)C[C@H](NC(=O)[C@H](CC(C)C)NC(=O)[C@H](Cc1c[nH]c2ccccc12)NC(=O)[C@H](Cc1c[nH]c2ccccc12)NC(=O)[C@H](Cc1c[nH]c2ccccc12)NC(=O)[C@@H](N)CCCN=C(N)N)C(N)=O [RWWWLL]
- MIC [2]: ≥ 64 µM

- MIC [16]: 30.3 µM (≈ 63.9 µg/mL)
- MIC [17]: 30.3 µM (≈ 63.9 µg/mL)
- MIC [3]: 30.3 µM (≈ 63.9 µg/mL)
- MIC [18]: 30.3 µM (≈ 63.9 µg/mL)
- MIC [19]: 30.3 µM (≈ 63.9 µg/mL)
- MIC [20]: 30.3 µM (≈ 63.9 µg/mL)
- MIC [21]: 30.3 µM (≈ 63.9 µg/mL)
- MIC [22]: 30.3 µM (≈ 63.9 µg/mL)
- MIC [23]: 30.3 µM (≈ 63.9 µg/mL)
- MIC [24]: 30.3 µM (≈ 63.9 µg/mL)
- MIC [25]: 30.3 µM (≈ 63.9 µg/mL)
- MIC [26]: 30.3 µM (≈ 63.9 µg/mL)
Compound: CC(=O)[C@H](C)NC(=O)[C@H](C)NC(=O)[C@H](CC(N)=O)NC(=O)[C@H](CC(C)C)NC(=O)[C@H](Cc1ccc(O)cc1)NC(=O)CNC(=O)CNC(=O)CNC(=O)[C@H](Cc1cnc[nH]1)NC(=O)[C@H](Cc1cnc[nH]1)NC(=O)[C@@H](NC(=O)CNC(=O)[C@H](Cc1cnc[nH]1)NC(=O)[C@H](Cc1ccccc1)NC(=O)[C@H](CC(C)C)NC(=O)[C@H](CC(C)C)NC(=O)[C@H](CCCNC(=N)N)NC(=O)[C@H](Cc1ccccc1)NC(=O)[C@@H](N)Cc1ccccc1)C(C)C [FFRLLFHGVHHGGGYLNAA]

- MIC [27]: 28.3 µM (≈ 50 µg/mL)
- MIC [28]: 28.3 µM (≈ 50 µg/mL)
- MIC [29]: > 56.5 µM
- MIC [30]: 3.39 µM (≈ 6 µg/mL)
- MIC [31]: ≥ 56.5 µM
- MIC [32]: ≥ 56.5 µM
- MIC [33]: ≥ 56.5 µM
- MIC [34]: ≥ 56.5 µM
- MIC [35]: 28.3 µM (≈ 50 µg/mL)
Compound: CC[C@H](C)[C@H](NC(=O)[C@H](CO)NC(=O)[C@H](CO)NC(=O)[C@H](C)NC(=O)[C@@H](NC(=O)[C@H](Cc1cnc[nH]1)NC(=O)CNC(=O)[C@H](C)NC(=O)[C@@H](NC(=O)[C@H](CCCCN)NC(=O)[C@H](CCCCN)NC(=O)[C@@H](NC(=O)[C@@H](NC(=O)[C@H](CC(=O)O)NC(=O)[C@H](Cc1ccccc1)NC(=O)[C@H](CC(C)C)NC(=O)CN)[C@@H](C)CC)C(C)C)[C@@H](C)CC)[C@@H](C)CC)C(N)=O [GLFDIVKKIAGHIASSI]

- MIC [36]: 15.6 µM (≈ 25 µg/mL)
- MIC [37]: ≥ 125 µM
- MIC [38]: 7.78 µM (≈ 12.5 µg/mL)
- MIC [39]: 15.6 µM (≈ 25 µg/mL)
- MIC [40]: 15.6 µM (≈ 25 µg/mL)
Compound: CC[C@H](C)[C@H](NC(=O)[C@H](CCCCN)NC(=O)[C@@H](N)CCCN=C(N)N)C(=O)N[C@@H](CCCCN)C(=O)N[C@@H](CCCN=C(N)N)C(=O)N[C@@H](Cc1ccc(O)cc1)C(=O)N[C@@H](CC(C)C)C(=O)N[C@@H](CCCN=C(N)N)C(=O)N[C@@H](CCCN=C(N)N)C(=O)N[C@@H](CCSC)C(=O)N[C@@H](Cc1c[nH]c2ccccc12)C(=O)O [RKIKRYLRRMW]

Compound: CC(C)C[C@H](NC(=O)[C@H](C)NC(=O)[C@H](CCCCN)NC(=O)[C@H](CCCCN)NC(=O)[C@H](CC(C)C)NC(=O)[C@H](C)NC(=O)[C@H](CCCCN)NC(=O)[C@H](CCCCN)NC(=O)[C@H](CC(C)C)NC(=O)[C@H](CCCCN)NC(=O)[C@H](CCCCN)NC(=O)[C@H](CC(C)C)NC(=O)[C@H](C)NC(=O)[C@H](CCCCN)NC(=O)[C@H](CC(C)C)NC(=O)[C@H](C)NC(=O)[C@@H](N)Cc1ccccc1)C(N)=O [FALKALKKLKKALKKAL]
- MIC [41]: ≥ 66.9 µM
- MIC [3]: 2.09 µM (≈ 4 µg/mL)
- MIC [42]: 8.37 µM (≈ 16 µg/mL)
- MIC [43]: 4.18 µM (≈ 8 µg/mL)
- MIC [44]: 2.09 µM (≈ 4 µg/mL)
- MIC [45]: 8.37 µM (≈ 16 µg/mL)
- MIC [46]: 4.18 µM (≈ 8 µg/mL)
- MIC [47]: 8.37 µM (≈ 16 µg/mL)
- MIC [48]: 4.18 µM (≈ 8 µg/mL)
- MIC [49]: 2.09 µM (≈ 4 µg/mL)
- MIC [35]: 4.18 µM (≈ 8 µg/mL)
- MIC [50]: 8.37 µM (≈ 16 µg/mL)
- MIC [51]: 2.09 µM (≈ 4 µg/mL)
- MIC [52]: 4.18 µM (≈ 8 µg/mL)
- MIC [53]: 2.09 µM (≈ 4 µg/mL)

- MIC [54]: ≥ 118 µM
Compound: CC[C@H](C)[C@H](NC(=O)[C@H](CCCCN)NC(=O)[C@H](CCC(N)=O)NC(=O)[C@@H](NC(=O)[C@@H](NC(=O)[C@H](CCCN=C(N)N)NC(=O)[C@H](CCCCN)NC(=O)[C@@H](N)Cc1ccccc1)[C@@H](C)CC)C(C)C)C(=O)N[C@@H](CCCCN)C(=O)N[C@@H](CC(=O)O)C(=O)N[C@@H](Cc1ccccc1)C(=O)N[C@@H](CC(C)C)C(=O)N[C@@H](CCCN=C(N)N)C(N)=O [FKRIVQKIKDFLR]
